How the values were obtained:
[1] = biological target: T1, AtAUR1 (Arabidopsis thaliana, UniProt Q9M077); experiment: Kinase assay with AtAUR1 and histone H3 as substrate; format: biochemical; conditions: 10 μM abrasin
T1 sequence (Q9M077 1-294): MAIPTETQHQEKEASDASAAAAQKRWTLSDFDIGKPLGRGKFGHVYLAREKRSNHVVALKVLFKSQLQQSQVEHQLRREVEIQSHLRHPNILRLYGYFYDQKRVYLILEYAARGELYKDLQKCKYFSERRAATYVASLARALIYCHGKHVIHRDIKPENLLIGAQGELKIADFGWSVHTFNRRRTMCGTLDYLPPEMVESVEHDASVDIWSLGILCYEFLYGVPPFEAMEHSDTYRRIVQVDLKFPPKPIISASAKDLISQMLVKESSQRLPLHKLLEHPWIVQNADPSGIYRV
Protocol: (§1) Coomassie staining was used as a loading control. b, Autoradiography of kinase assays with nine ASKs with MBP as a substrate in the presence or absence of 10 μM abrasin. The second member of group IV, ASKκ, had no kinase activity and was not included in the analysis. c, Autoradiography of kinase assays with AtMPK4, AtMPK6 and MBP as a substrate (left) and with AtAUR1 kinase and histone H3 as a substrate (right) in the presence or absence of 10 μM abrasin.
For in vitro kinase assays, MBP, MBP-BES1, and MBP-bes1 (20 ng each) were incubated with GST-BIN2 or GST-BRI1 kinase (200 ng each) in 20 μl of kinase buffer (20 mM Tris [pH 7.5], 100 mM NaCl, and 12 mM MgCl2) and 10 μCi ^32P-γATP. After incubation at 37° C. for 40 min, the reactions were stopped by adding 20 μl of 2×SDS buffer and boiling at 94° C. for 5 min. Proteins were resolved by a PAGE gel and phosphorylation was detected by exposing the dried gel to X-ray film. […]
Besides BIN2, nine additional GSK-3 kinases (also designated ASKs for Arabidopsis SHAGGY-related kinases) divided into four subgroups (I-IV) have been identified in Arabidopsis (Jonak and Hirt, 2002; Yoo et al. 2006). To determine the specificity of abrasin, its effect on the kinase activity of all ASKs was analyzed with myelin basic protein (MBP) as a general substrate. […]

[2] = biological target: T2, ASKβ (group III) (Arabidopsis thaliana, UniProt O23145); experiment: ASK kinase assay with MBP as substrate, ASKβ; format: biochemical; conditions: 10 μM abrasin
T2 sequence (O23145 1-431): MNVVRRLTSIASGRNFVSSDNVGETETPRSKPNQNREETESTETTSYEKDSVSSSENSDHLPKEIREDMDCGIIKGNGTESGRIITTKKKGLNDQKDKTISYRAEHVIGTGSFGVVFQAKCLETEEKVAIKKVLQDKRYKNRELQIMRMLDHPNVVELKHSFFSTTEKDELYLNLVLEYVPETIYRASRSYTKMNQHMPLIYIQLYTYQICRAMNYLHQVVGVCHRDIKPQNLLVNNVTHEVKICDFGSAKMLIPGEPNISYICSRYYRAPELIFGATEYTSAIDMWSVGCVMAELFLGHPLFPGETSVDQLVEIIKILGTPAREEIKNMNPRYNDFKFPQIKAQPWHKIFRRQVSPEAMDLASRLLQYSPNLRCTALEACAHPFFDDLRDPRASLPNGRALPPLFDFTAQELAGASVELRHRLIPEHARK
Protocol: Coomassie staining was used as a loading control. b, Autoradiography of kinase assays with nine ASKs with MBP as a substrate in the presence or absence of 10 μM abrasin.
(§2) For in vitro kinase assays, MBP, MBP-BES1, and MBP-bes1 (20 ng each) were incubated with GST-BIN2 or GST-BRI1 kinase (200 ng each) in 20 μl of kinase buffer (20 mM Tris [pH 7.5], 100 mM NaCl, and 12 mM MgCl2) and 10 μCi ^32P-γATP. After incubation at 37° C. for 40 min, the reactions were stopped by adding 20 μl of 2×SDS buffer and boiling at 94° C. for 5 min. Proteins were resolved by a PAGE gel and phosphorylation was detected by exposing the dried gel to X-ray film. Proteins from 35S::bes1-GFP transgenic plants were used for phosphatase (CIP) treatments as described (Fankhauser et al., 1999).
Besides BIN2, nine additional GSK-3 kinases (also designated ASKs for Arabidopsis SHAGGY-related kinases) divided into four subgroups (I-IV) have been identified in Arabidopsis (Jonak and Hirt, 2002; Yoo et al. 2006). To determine the specificity of abrasin, its effect on the kinase activity of all ASKs was analyzed with myelin basic protein (MBP) as a general substrate.

[3] = system: bri1-116 plants grown in soil; experiment: Rescue of soil-grown mutants by watering; format: in vivo, Arabidopsis thaliana; conditions: watered with 2 ml 300 μM ABRASIN per day
Protocol: FIG. 15: Phenotype rescue of brit-116 and cpd mutants. (A.) The mutant and Col-0 plants were germinated on MS+DMSO medium till day 5 and afterwards transferred on MS supplemented with DMSO, 1 μM BL or 30 μM ABRASIN until day 11. Treatment with BL rescues the cpd mutant phenotype but not bri1-116 while ABRASIN rescues both mutants. […] BL: brassinolide; BIK: abrasin.
Col-0, the null BR signaling bri1-116 (Friedrichsen et al., 2000) and BR biosynthetic cpd (Szekeres et al., 1996) mutants were subjected to phenotype rescue analysis by treatments with BL and ABRASIN. As a negative control, dimethylsulfoxide (DMSO) was used. Plants were germinated in vitro for 5 days on ½ MS containing DMSO medium and from day 6th to day 11th they were transferred on medium supplemented with BL (10 nM, 100 nM, 1000 nM), ABRASIN (5 μM, 10 μM, 30 μM) or DMSO. Cotyledons and leaves were collected for flowcytometric analysis at the 11th day (i.e. 6 days of treatments). Samples for β-glucuronidase (GUS) assay were taken on day 6th (i.e. 1 day treatments), 8th (i.e. 3 days treatments), 10th (i.e. 5 days treatments). Rescue of soil-grown mutants at different growth stages was checked by watering bri1-116 and cpd mutants with either BL or 2 ml 300 μM ABRASIN per day.

[4] = biological target: T3, BIN2 kinase (Arabidopsis thaliana, UniProt Q39011); experiment: In vitro kinase assay GST-BIN2 with MBP-BES1; format: biochemical
T3 sequence (Q39011 1-380): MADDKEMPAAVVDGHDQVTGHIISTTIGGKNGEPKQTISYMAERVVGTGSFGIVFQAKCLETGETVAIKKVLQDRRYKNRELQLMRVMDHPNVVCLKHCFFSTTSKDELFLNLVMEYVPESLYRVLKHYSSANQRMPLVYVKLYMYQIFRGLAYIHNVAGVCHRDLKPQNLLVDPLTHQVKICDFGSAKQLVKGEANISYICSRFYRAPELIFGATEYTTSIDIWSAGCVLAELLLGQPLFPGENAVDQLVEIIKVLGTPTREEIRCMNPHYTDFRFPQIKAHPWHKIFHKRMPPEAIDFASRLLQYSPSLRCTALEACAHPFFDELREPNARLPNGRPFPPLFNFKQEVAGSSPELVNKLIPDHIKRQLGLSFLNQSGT
Protocol: as §1, §2

O=C(O)CCC(=O)Nc1ccc(Br)cn1 [abrasin, 4-[(5-bromo-2-pyridinyl)amino]-4-oxobutanoic acid]
effect on kinase activity [1]: no effect | effect on kinase activity [2]: not affected | phenotype change of soil-grown mutant [3]: sufficient to slightly change the phenotype of 1 month-old bri1-116 plants in a week | concentration at which inhibitory effect was already apparent [4]: lower than 2.5 μM | BIN2 kinase activity towards its substrate BES1 ([4]; 0 to 10 μM): strongly reduced BIN2 kinase activity towards its substrate BES1 in a dose-dependent manner | inhibitory effect on BIN2 kinase activity ([4]; at 10 μM): dramatic

Reference: patent US8273775B2, “Non-steroidal brassinosteroid mimetic” (priority 2006, dated 2012)
